According to patent publication US20030232851A1, “Viral treatment” (The Procter & Gamble Company, priority 1999, published 2003):
“And” between values parts separate entries of the source, which are not always exact repeats. Equal entries are not always repeated. Where two headings read alike, the source gives them in different places.

Tests used:
HIV-1 cell line, CEMRF = type: cell-based; conditions: for reverse transcriptase data: 7 μg/ml
Protocol: (§1) A microtiter-based reveres transcriptase (RT) reaction is utilized (Buckheit et al (1991) AIDS Research and Human Retroviruses 7:295-302). Tritiated thymidine triphosphate (NEN)(TTP) is resuspended in distilled water at 5 Ci/ml. Poly rA and oligo dT are prepared as a stock solution which is kept at −20° C. The RT reaction buffer is prepared fresh on a daily basis and consists of 125 μl 1M EGTA, 125 μl water, 125 μl Triton X-100, 50 μl Tris (pH 7.4), 50 μl 1 MDDT, and 40 μl 1M MgCl2. These three solutions are mixed together in a ratio of 1 part TTP, 2.5 parts poly rA:oligo dT, 2.5 parts reaction buffer and 4 parts distilled water. Ten microliters of this reaction mixture is placed in a round bottom microtiter place and 15 μl of virus containing supernatant is added and mixed. The plate is incubated at 37° C. for 60 minutes. Following reaction, the reaction volume is spotted onto filter mats, washed 6 times for 5 minutes each in a 5% sodium phosphate buffer, 2 times for 1 minute each in distilled water, 2 times for 1 minute each in 70% ethanol, and then dried. The dried filter mat is placed in a plastic sample bag, Betaplate scintillation fluid is added and the bag is heat sealed. Incorporated radioactivity is quantified utilizing a Wallac Microbeta scintillation counter.
Acute infection of most established human cell lines with HIV-1 results in the eventual establishment of a constitutive virus-producing chronically infected cell line. The cells can be passaged for long periods of time in culture without loss of virus production. These cells may be utilized to evaluate the effects of anti-HIV compounds on syncytium formation or to evaluate the effects of anti-HIV compounds on levels of virus production from these cells. […] Each of the cells contains an integrated HIV genome or provirus. Chronically infected CEM, H9 and U937 cell lines have been prepared and cultured by Southern Research Institute, Frederick Md. and are available from them.
CEM-SS cells chronically infected with HIV isolate, for example SKI (CEM-SKI) are cultured in RPMI1640 tissue culture medium supplemented with 10% fetal bovine serum and antibiotics. Selection is performed by culturing the cells in the presence of the compound to be tested in T25 flasks. CEM-SKI or other infected cells with no added drug are used as the control cells. Cells are allowed to grow to a density of approximately 1×10^6 cells/ml and are then passaged at a 1:10 dilution. […] The drug concentration in the flask is then increased two-fold and the cells maintained as above.
The cell populations contain integrated copies of the HIV genome and constitutively produce HIV at relatively high levels or are latently infected and only produce virus after stimulation with phorbol esters, tumor necrosis factor or IL6 (U1 and ACH2).
A long term in vitro study of 2-(2-thienyl)-imidazolo [4,5-b]pyridine against an HIV-1 cell line, CEMRF, was conducted at three different levels. […] CEMRF is a chronic HIV cell line.

HIV-2 virus, CEMROD = experiment: In vitro screening against HIV-2 virus, CEMROD: reverse transcriptase activity; type: cell-based; design: Reverse Transcriptase Activity, samples 1-3 / Reverse Transcriptase Activity, average: unit not given here
Protocol: as §1

[1] = Table 2 duplicate study, 0.32 μg/ml
[2] = Table 2 duplicate study, 1 μg/ml
[3] = Table 2 duplicate study, 1.0 μg/ml
[4] = Table 2 duplicate study, 3.2 μg/ml
[5] = Table 2 duplicate study, 32 μg/ml
[6] = Table 2 duplicate study, 100 μg/ml

c1csc(-c2nc3cccnc3[nH]2)c1 [2-(2-thienyl)-imidazolo [4,5-b]pyridine]
reverse transcriptase data (HIV-1 cell line, CEMRF; day 4): 6521
reverse transcriptase data (HIV-1 cell line, CEMRF; day 67): 9241
reverse transcriptase data (HIV-1 cell line, CEMRF; day 71): 8422
reverse transcriptase data (HIV-1 cell line, CEMRF; day 74): 8643
resistance developing (HIV-1 cell line, CEMRF; by day 186 at the 15 and 30 μg/ml level): no indication of resistance developing
reverse transcriptase data on continuation (in words) (HIV-1 cell line, CEMRF; run through 242 days): data remained consistent
Reverse Transcriptase Activity, % virus control (HIV-2 virus, CEMROD; Table 1, 0.32 μg/ml): 119%
Reverse Transcriptase Activity, average (HIV-2 virus, CEMROD; Table 1, 0.32 μg/ml): 5947
Reverse Transcriptase Activity, samples 1-3 (HIV-2 virus, CEMROD; Table 1, 0.32 μg/ml): 5878 and 5529 and 6435
Reverse Transcriptase Activity, % virus control (HIV-2 virus, CEMROD; Table 1, 1 μg/ml): 103.8%
Reverse Transcriptase Activity, average (HIV-2 virus, CEMROD; Table 1, 1 μg/ml): 5188
Reverse Transcriptase Activity, samples 1-3 (HIV-2 virus, CEMROD; Table 1, 1 μg/ml): 5002 and 5086 and 5476
Reverse Transcriptase Activity, % virus control (HIV-2 virus, CEMROD; Table 1, 1.0 μg/ml): 48.1%
Reverse Transcriptase Activity, average (HIV-2 virus, CEMROD; Table 1, 1.0 μg/ml): 2403
Reverse Transcriptase Activity, samples 1-3 (HIV-2 virus, CEMROD; Table 1, 1.0 μg/ml): 2812 and 2206 and 2190
Reverse Transcriptase Activity, % virus control (HIV-2 virus, CEMROD; Table 1, 3.2 μg/ml): 84.0%
Reverse Transcriptase Activity, average (HIV-2 virus, CEMROD; Table 1, 3.2 μg/ml): 4201
Reverse Transcriptase Activity, samples 1-3 (HIV-2 virus, CEMROD; Table 1, 3.2 μg/ml): 4005 and 4017 and 4580
Reverse Transcriptase Activity, % virus control (HIV-2 virus, CEMROD; Table 1, 32 μg/ml): 8.1%
Reverse Transcriptase Activity, average (HIV-2 virus, CEMROD; Table 1, 32 μg/ml): 407
Reverse Transcriptase Activity, samples 1-3 (HIV-2 virus, CEMROD; Table 1, 32 μg/ml): 382 and 390 and 450
Reverse Transcriptase Activity, % virus control (HIV-2 virus, CEMROD; Table 1, 100 μg/ml): 1.4%
Reverse Transcriptase Activity, average (HIV-2 virus, CEMROD; Table 1, 100 μg/ml): 72
Reverse Transcriptase Activity, samples 1-3 (HIV-2 virus, CEMROD; Table 1, 100 μg/ml): 80 and 68
Reverse Transcriptase Activity, % virus control (HIV-2 virus, CEMROD; [1]): 116.6%
Reverse Transcriptase Activity, average (HIV-2 virus, CEMROD; [1]): 5616
Reverse Transcriptase Activity, samples 1-3 (HIV-2 virus, CEMROD; [1]): 4758 and 5725 and 6365
Reverse Transcriptase Activity, % virus control (HIV-2 virus, CEMROD; [2]): 121.1%
Reverse Transcriptase Activity, average (HIV-2 virus, CEMROD; [2]): 5833
Reverse Transcriptase Activity, samples 1-3 (HIV-2 virus, CEMROD; [2]): 4251 and 6264 and 6984
Reverse Transcriptase Activity, % virus control (HIV-2 virus, CEMROD; [3]): 51.1%
Reverse Transcriptase Activity, average (HIV-2 virus, CEMROD; [3]): 2463
Reverse Transcriptase Activity, samples 1-3 (HIV-2 virus, CEMROD; [3]): 2776 and 2531 and 2081
Reverse Transcriptase Activity, % virus control (HIV-2 virus, CEMROD; [4]): 100.0%
Reverse Transcriptase Activity, average (HIV-2 virus, CEMROD; [4]): 4819
Reverse Transcriptase Activity, samples 1-3 (HIV-2 virus, CEMROD; [4]): 5050 and 5352 and 4054
Reverse Transcriptase Activity, % virus control (HIV-2 virus, CEMROD; [5]): 4.1%
Reverse Transcriptase Activity, average (HIV-2 virus, CEMROD; [5]): 197
Reverse Transcriptase Activity, samples 1-3 (HIV-2 virus, CEMROD; [5]): 173 and 177 and 241
Reverse Transcriptase Activity, % virus control (HIV-2 virus, CEMROD; [6]): 0.9%
Reverse Transcriptase Activity, average (HIV-2 virus, CEMROD; [6]): 44
efficacy in treating HIV (in words) (HIV-2 virus, CEMROD; at the higher concentrations): shows efficacy
